One test deals with T1, human NPR1 (Homo sapiens, UniProt P16066).
T1 construct: host or cells: CHO-K1
T1 sequence (P16066 33-1061): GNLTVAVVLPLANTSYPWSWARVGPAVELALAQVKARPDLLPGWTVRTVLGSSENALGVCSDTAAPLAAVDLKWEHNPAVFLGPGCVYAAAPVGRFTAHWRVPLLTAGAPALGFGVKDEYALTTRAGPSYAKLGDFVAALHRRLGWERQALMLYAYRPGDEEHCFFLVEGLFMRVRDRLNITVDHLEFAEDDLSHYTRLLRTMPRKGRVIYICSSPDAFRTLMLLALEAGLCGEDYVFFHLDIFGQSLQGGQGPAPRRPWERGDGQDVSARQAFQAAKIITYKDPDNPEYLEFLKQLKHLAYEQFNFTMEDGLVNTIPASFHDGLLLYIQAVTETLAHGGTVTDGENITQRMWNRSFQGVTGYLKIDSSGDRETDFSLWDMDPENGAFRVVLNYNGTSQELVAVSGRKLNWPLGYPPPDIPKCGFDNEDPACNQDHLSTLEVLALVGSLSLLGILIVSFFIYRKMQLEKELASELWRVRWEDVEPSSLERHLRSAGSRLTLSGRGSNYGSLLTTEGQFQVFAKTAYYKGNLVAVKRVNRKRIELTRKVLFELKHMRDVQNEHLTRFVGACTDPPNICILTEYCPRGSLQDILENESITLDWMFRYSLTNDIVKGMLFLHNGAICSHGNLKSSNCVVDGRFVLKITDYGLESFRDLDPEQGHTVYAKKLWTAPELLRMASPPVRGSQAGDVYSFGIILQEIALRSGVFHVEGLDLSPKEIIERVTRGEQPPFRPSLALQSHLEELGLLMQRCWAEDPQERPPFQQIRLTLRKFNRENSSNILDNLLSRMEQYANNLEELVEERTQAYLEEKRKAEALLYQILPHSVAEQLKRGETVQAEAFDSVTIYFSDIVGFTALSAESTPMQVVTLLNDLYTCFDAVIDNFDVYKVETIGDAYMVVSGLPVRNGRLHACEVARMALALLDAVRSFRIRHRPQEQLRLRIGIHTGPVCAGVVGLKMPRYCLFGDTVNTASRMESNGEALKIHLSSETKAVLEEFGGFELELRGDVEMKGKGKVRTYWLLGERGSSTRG
In words: Cellular cGMP production assay, human NPR1 expressing CHO-K1 cells (CisBio HTRF). Conditions: for AC50: cGMP production, 30 min at 37° C., 12-point dose-response from 30 μM; for Human NPR1 Amax (% of ANP): maximum cGMP production as percentage of the maximum cGMP produced with ANP. The test is classed as cell-based. In a few lines:
(§1)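 Read-out was HTRF (excitation 317 nm, emission 665 nm), with cGMP quantified as Delta F against a calibrator standard curve. Beforehand, cells were exposed for 30 min at 37 °C to compound (30 μM top, twelve 3-fold steps) in IBMX-containing PBS/BSA buffer, then lysed.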
In general terms: In TR-FRET formats the signal depends on donor and acceptor labels being close together.

The target of the next test is monkey NPR1 (Macaca fascicularis, UniProt A0A7N9DBT9). Briefly: Cellular cGMP production assay, monkey NPR1 expressing CHO-K1 cells (CisBio HTRF). It is filed as cell-based. The conditions noted are these: for Monkey NPR1 Amax (% of ANP): maximum cGMP production as percentage of the maximum cGMP produced with ANP. In a few lines: as §1
Chain of monkey NPR1 (A0A7N9DBT9 entry or part of it): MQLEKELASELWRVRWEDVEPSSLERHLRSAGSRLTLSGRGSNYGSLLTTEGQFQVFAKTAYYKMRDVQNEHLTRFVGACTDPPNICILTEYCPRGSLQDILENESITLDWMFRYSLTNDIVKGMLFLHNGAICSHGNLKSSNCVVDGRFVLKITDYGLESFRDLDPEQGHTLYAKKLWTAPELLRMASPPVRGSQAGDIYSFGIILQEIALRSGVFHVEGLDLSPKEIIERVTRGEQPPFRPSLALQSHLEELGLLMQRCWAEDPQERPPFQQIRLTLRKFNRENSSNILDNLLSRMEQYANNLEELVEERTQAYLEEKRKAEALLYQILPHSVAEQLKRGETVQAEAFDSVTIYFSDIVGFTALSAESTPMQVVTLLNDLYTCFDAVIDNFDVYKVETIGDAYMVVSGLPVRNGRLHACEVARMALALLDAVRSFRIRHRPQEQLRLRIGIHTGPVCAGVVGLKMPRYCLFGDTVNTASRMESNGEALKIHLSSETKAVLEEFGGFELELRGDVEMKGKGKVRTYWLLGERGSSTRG
Setting [1] is: cGMP production, monkey NPR1 CHO-K1 cells, 30 min at 37° C., 12-point dose-response from 30 μM, read-out: Monkey NPR1 AC50.

Each structure is given as a SMILES string. Like-named read-outs stand apart in the source and are kept apart here.

In general, AC50 refers to the concentration giving half of the maximal activity seen. For `CC[C@@H](Nc1nc2c(c(N[C@@H](CN3CCC[C@H](C)C3)c3cnn(C)c3)n1)C[C@](C)(c1ccc(F)cc1)CC2)[C@H]1CC[C@H](C(=O)O)CC1` [Compound 5, (1R,4r)-4-((R)-1-(((R)-6-(4-fluorophenyl)-6-methyl-4-(((R)-1-(1-methyl-1H-pyrazol-4-yl)-2-((S)-3-methylpiperidin-1-yl)ethyl)amino)-5,6,7,8-tetrahydroquinazolin-2-yl)amino)propyl)cyclohexane-1-carboxylic acid], the AC50 at human NPR1 amounted to 72 nM; on monkey NPR1 (setting [1]), 68 nM. On human NPR1, the “Human NPR1 Amax (% of ANP)” value is 85.741 % of ANP. Besides, the “Monkey NPR1 Amax (% of ANP)” value at monkey NPR1 (monkey NPR1 CHO-K1 cells) is reported as 104.503 % of ANP.

For `CC[C@H]([C@H]1CC[C@H](C(=O)O)CC1)N(C)c1nc2c(c(N[C@@H](CN3CCCC3)c3ccccc3)n1)C[C@H](c1ccccc1)CC2` [Compound 146, (1R,4r)-4-((R)-1-(methyl((R)-6-phenyl-4-(((R)-1-phenyl-2-(pyrrolidin-1-yl)ethyl)amino)-5,6,7,8-tetrahydroquinazolin-2-yl)amino)propyl)cyclohexane-1-carboxylic acid], the results for the half-maximal activity concentration (AC50) at human NPR1 and on monkey NPR1 (setting [1]) were 1070 nM and 702 nM, respectively. Also, the “Human NPR1 Amax (% of ANP)” value at human NPR1 was 104.657 % of ANP. The “Monkey NPR1 Amax (% of ANP)” value on monkey NPR1 (monkey NPR1 CHO-K1 cells) is 96.864 % of ANP.

`CC[C@@H](Nc1nc2c(c(N[C@@H](CN3CCCCCC3)c3cnn(C)c3)n1)C[C@H](c1ccccc1)CC2)[C@H]1CC[C@H](C(=O)O)CC1` [Compound 51, (1R,4r)-4-((R)-1-(((R)-4-(((R)-2-(azepan-1-yl)-1-(1-methyl-1H-pyrazol-4-yl)ethyl)amino)-6-phenyl-5,6,7,8-tetrahydroquinazolin-2-yl)amino)propyl)cyclohexane-1-carboxylic acid]: the AC50 at human NPR1 came to 187 nM; on monkey NPR1 (setting [1]), 110 nM. Besides, the “Human NPR1 Amax (% of ANP)” value on human NPR1 is listed as 106.105 % of ANP. Moreover, at monkey NPR1 (monkey NPR1 CHO-K1 cells), the “Monkey NPR1 Amax (% of ANP)” value is reported as 104.734 % of ANP.

For `CC[C@@H](Nc1nc2c(c(N[C@@H](CN3CCC(OC)CC3)c3cnn(C)c3)n1)C[C@H](c1ccccc1)CC2)[C@H]1CC[C@H](C(=O)O)CC1` [Compound 151, (1R,4r)-4-((R)-1-(((R)-4-(((R)-2-(4-methoxypiperidin-1-yl)-1-(1-methyl-1H-pyrazol-4-yl)ethyl)amino)-6-phenyl-5,6,7,8-tetrahydroquinazolin-2-yl)amino)propyl)cyclohexane-1-carboxylic acid], the values for the AC50 on human NPR1 and on monkey NPR1 (setting [1]) were 1180 nM and 1330 nM, respectively. In addition, the “Human NPR1 Amax (% of ANP)” value at human NPR1 is on record as 88.350 % of ANP. Moreover, the “Monkey NPR1 Amax (% of ANP)” value on monkey NPR1 (monkey NPR1 CHO-K1 cells) was 96.950 % of ANP.

Turning to `CC[C@H]([C@H]1CC[C@H](C(=O)O)CC1)N(C)c1nc2c(c(N[C@@H](CN3CCC[C@H](O)C3)c3cnn(CC)c3)n1)C[C@H](c1cccc(F)c1)CC2` [Compound 163, (1R,4r)-4-((R)-1-(((R)-4-(((R)-1-(1-ethyl-1H-pyrazol-4-yl)-2-((S)-3-hydroxypiperidin-1-yl)ethyl)amino)-6-(3-fluorophenyl)-5,6,7,8-tetrahydroquinazolin-2-yl)(methyl)amino)propyl)cyclohexane-1-carboxylic acid], on human NPR1, the AC50 came out at 1710 nM and the “Human NPR1 Amax (% of ANP)” value is 103.903 % of ANP. For the same compound, the AC50 on monkey NPR1 (setting [1]) was found to be 1270 nM. In addition, on monkey NPR1 (monkey NPR1 CHO-K1 cells), the “Monkey NPR1 Amax (% of ANP)” value is on record as 102.145 % of ANP.

For `CC[C@H]([C@H]1CC[C@H](C(=O)O)CC1)N(C)c1nc2c(c(N[C@@H](CN3CCC[C@H](C)C3)c3cnn(C)c3)n1)C[C@@H](c1cccc(F)c1)CC2` [Compound 75, (1R,4r)-4-((R)-1-(((S)-6-(3-fluorophenyl)-4-(((R)-1-(1-methyl-1H-pyrazol-4-yl)-2-((S)-3-methylpiperidin-1-yl)ethyl)amino)-5,6,7,8-tetrahydroquinazolin-2-yl)(methyl)amino)propyl)cyclohexane-1-carboxylic acid], at human NPR1, the AC50 worked out at 247 nM and the “Human NPR1 Amax (% of ANP)” value is on record as 93.803 % of ANP. Further, the activity on monkey NPR1 was half-maximal at 162 nM (AC50). On monkey NPR1 (monkey NPR1 CHO-K1 cells), the “Monkey NPR1 Amax (% of ANP)” value is reported as 102.588 % of ANP.

For `CC[C@H]([C@H]1CC[C@H](C(=O)O)CC1)N(C)c1nc2c(c(N[C@@H](CN3CCC[C@H](CF)C3)c3cnn(C)c3)n1)C[C@H](c1ccccc1)CC2` [Compound 87, (1R,4r)-4-((R)-1-(((R)-4-(((R)-2-((S)-3-(fluoromethyl)piperidin-1-yl)-1-(1-methyl-1H-pyrazol-4-yl)ethyl)amino)-6-phenyl-5,6,7,8-tetrahydroquinazolin-2-yl)(methyl)amino)propyl)cyclohexane-1-carboxylic acid], the figures for the AC50 at human NPR1 and on monkey NPR1 (setting [1]) were 292 nM and 235 nM, respectively. The “Human NPR1 Amax (% of ANP)” value at human NPR1 is listed as 93.715 % of ANP. In addition, the “Monkey NPR1 Amax (% of ANP)” value at monkey NPR1 (monkey NPR1 CHO-K1 cells) is recorded as 100.104 % of ANP.

In the case of `CC[C@@H](Nc1nc2c(c(N[C@@H](CN3CCCC(F)(F)CC3)c3cnn(CC)c3)n1)C[C@H](c1ccccc1)CC2)[C@H]1CC[C@H](C(=O)O)CC1` [Compound 137, (1R,4r)-4-((R)-1-(((R)-4-(((R)-2-(4,4-difluoroazepan-1-yl)-1-(1-ethyl-1H-pyrazol-4-yl)ethyl)amino)-6-phenyl-5,6,7,8-tetrahydroquinazolin-2-yl)amino)propyl)cyclohexane-1-carboxylic acid], at human NPR1, the AC50 came out at 840 nM and the “Human NPR1 Amax (% of ANP)” value is on record as 95.603 % of ANP. Further, at monkey NPR1 (setting [1]), the AC50 amounted to 379 nM. The “Monkey NPR1 Amax (% of ANP)” value on monkey NPR1 (monkey NPR1 CHO-K1 cells) is 99.351 % of ANP.

Take `CC[C@@H](N(C)c1nc2c(c(N[C@@H](CN3CCC[C@H](C)C3)c3cnn(C)c3C)n1)C[C@H](c1cccc(F)c1)CC2)C12CC(C(=O)O)(C1)C2` [Compound 46]: the AC50 worked out at 179 nM on human NPR1 and 146 nM at monkey NPR1 (setting [1]). Further, the “Human NPR1 Amax (% of ANP)” value on human NPR1 is on record as 93.728 % of ANP. The “Monkey NPR1 Amax (% of ANP)” value at monkey NPR1 (monkey NPR1 CHO-K1 cells) is 101.294 % of ANP.

As to `CC[C@H](N(C)c1nc2c(c(N[C@@H](CN3C4CCCC3CC4)c3cnn(C)c3)n1)C[C@](C)(c1ccccc1)CC2)C12CC(C(=O)O)(C1)C2` [Compound 69, 3-((1S)-1-(((6R)-4-(((1R)-2-(8-azabicyclo[3.2.1]octan-8-yl)-1-(1-methyl-1H-pyrazol-4-yl)ethyl)amino)-6-methyl-6-phenyl-5,6,7,8-tetrahydroquinazolin-2-yl)(methyl)amino)propyl)bicyclo[1.1.1]pentane-1-carboxylic acid], at human NPR1, the AC50 amounted to 234 nM and the “Human NPR1 Amax (% of ANP)” value was 98.634 % of ANP. The AC50 at monkey NPR1 worked out at 220 nM. The “Monkey NPR1 Amax (% of ANP)” value at monkey NPR1 (monkey NPR1 CHO-K1 cells) was 100.449 % of ANP.

On to `CC[C@H]([C@H]1CC[C@H](C(=O)O)CC1)N(C)c1nc2c(c(N[C@@H](CN3CCC[C@H](C)C3)c3cnn(C)c3)n1)CN(c1cccc(Cl)c1)CC2` [Compound 170, (1R,4r)-4-((R)-1-((6-(3-chlorophenyl)-4-(((R)-1-(1-methyl-1H-pyrazol-4-yl)-2-((S)-3-methylpiperidin-1-yl)ethyl)amino)-5,6,7,8-tetrahydropyrido[4,3-d]pyrimidin-2-yl)(methyl)amino)propyl)cyclohexane-1-carboxylic acid], for which, at human NPR1, the AC50 is 2740 nM and the “Human NPR1 Amax (% of ANP)” value was 97.591 % of ANP. The AC50 at monkey NPR1 (setting [1]) turned out to be 790 nM. For the same compound, the “Monkey NPR1 Amax (% of ANP)” value at monkey NPR1 (monkey NPR1 CHO-K1 cells) was 124.109 % of ANP.

As to `CC[C@H]([C@H]1CC[C@H](C(=O)O)CC1)N(C)c1nc2c(c(N[C@@H](CN3CCC(O)CC3)c3cnn(CC)c3)n1)C[C@H](c1ccccc1)CC2` [Compound 154, (1R,4r)-4-((R)-1-(((R)-4-(((R)-1-(1-ethyl-1H-pyrazol-4-yl)-2-(4-hydroxypiperidin-1-yl)ethyl)amino)-6-phenyl-5,6,7,8-tetrahydroquinazolin-2-yl)(methyl)amino)propyl)cyclohexane-1-carboxylic acid], on human NPR1, the AC50 came to 1240 nM and the “Human NPR1 Amax (% of ANP)” value is recorded as 105.125 % of ANP. The AC50 on monkey NPR1 (setting [1]) amounted to 802 nM. In addition, the “Monkey NPR1 Amax (% of ANP)” value at monkey NPR1 (monkey NPR1 CHO-K1 cells) is given as 97.456 % of ANP.
